Assay results taken from ChEMBL document CHEMBL3098066, “Minimum active structure of insulin-like peptide 5” (J Med Chem, 2013).
Active and inactive are the calls of the source. No cut-off for these calls is given here. Where a SMILES comes first, the peptide text is derived from it. Bridges are numbered along the chain shown (N, C = ends). The star is where a group is joined. Acm = CC(=O)NC*; tBu = CC(C)(C)*; Cam = NC(=O)C*

How the values were obtained:
[1] = target: Relaxin-3 receptor 2 (Homo sapiens) (UniProt Q8TDU9); assay: Agonist activity at human RXFP4 transfected in CHO-K1 cells at 0.01 nM to 1000 nM by beta-galactosidase reporter gene assay relative to forskolin; type: functional, cell-based
Sequence of Relaxin-3 receptor 2 (Homo sapiens) (Q8TDU9 whole entry): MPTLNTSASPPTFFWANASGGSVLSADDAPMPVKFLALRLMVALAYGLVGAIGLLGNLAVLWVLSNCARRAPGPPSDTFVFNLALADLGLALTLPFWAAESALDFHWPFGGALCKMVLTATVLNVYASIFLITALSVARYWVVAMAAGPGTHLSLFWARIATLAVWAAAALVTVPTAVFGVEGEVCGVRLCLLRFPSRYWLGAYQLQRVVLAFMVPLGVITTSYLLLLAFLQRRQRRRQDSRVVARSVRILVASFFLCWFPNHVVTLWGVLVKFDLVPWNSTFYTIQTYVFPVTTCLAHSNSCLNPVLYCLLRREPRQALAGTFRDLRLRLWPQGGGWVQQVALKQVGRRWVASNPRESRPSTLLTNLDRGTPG

[2] = target: Relaxin-3 receptor 2 (Homo sapiens) (UniProt Q8TDU9); assay: Agonist activity at human RXFP4 transfected in CHO-K1 cells assessed as inhibition of forskolin-induced cAMP production by beta-galactosidase reporter gene assay; type: functional, cell-based
[3] = target: Relaxin-3 receptor 2 (Homo sapiens) (UniProt Q8TDU9); assay: Displacement of Eu(A)-mINSL5 acid from human RXFP4 transfected in CHO-K1 cells by fluorescence-based assay; type: cell-based
[4] = target: Relaxin-3 receptor 2 (Homo sapiens) (UniProt Q8TDU9); assay: Agonist activity at human RXFP4 transfected in CHO-K1 cells at 10 uM by beta-galactosidase reporter gene assay relative to forskolin; type: functional, cell-based
[5] = target: Relaxin-3 receptor 2 (Homo sapiens) (UniProt Q8TDU9); assay: Agonist activity at human RXFP4 transfected in CHO-K1 cells up to 10 uM by beta-galactosidase reporter gene assay relative to forskolin; type: functional, cell-based

Emax [1] | pEC50 [2] | pIC50 [3] | Emax [4] | Emax [5] | Molecule
inactive | inactive | inactive | – | – | CSCC[C@H](NC(=O)[C@H](CO)NC(=O)[C@H](CSCC(N)=O)NC(=O)CNC(=O)[C@H](CCC(=O)O)NC(=O)[C@H](CCCNC(=N)N)NC(=O)[C@H](CSC(C)(C)C)NC(=O)[C@H](CSCC(N)=O)NC(=O)[C@H](CC(C)C)NC(=O)[C@H](C)NC(=O)[C@H](CCC(N)=O)NC(=O)[C@H](CC(C)C)NC(=O)[C@H](CC(=O)O)NC(=O)[C@@H](N)CCCNC(=N)N)C(=O)N[C@@H](CCCCN)C(=O)N[C@@H](CCC(=O)O)C(=O)N[C@@H](CC(C)C)C(=O)N[C@@H](CO)C(=O)N[C@H](C(=O)N[C@@H](CC(C)C)C(=O)N[C@@H](CSCNC(C)=O)C(=O)O)[C@@H](C)O (H-RDLQALC(Cam)C(tBu)REGC(Cam)SMKELSTLC(Acm)-OH)
inactive | inactive | inactive | – | – | CSCC[C@H](NC(=O)[C@H](CO)NC(=O)[C@@H]1CSSC[C@H](NC(=O)[C@H](CC(C)C)NC(=O)[C@H](C)NC(=O)[C@H](CCC(N)=O)NC(=O)[C@H](CC(C)C)NC(=O)[C@H](CC(=O)O)NC(=O)[C@@H](N)CCCNC(=N)N)C(=O)N[C@@H](CSC(C)(C)C)C(=O)N[C@@H](CCCNC(=N)N)C(=O)N[C@@H](CCC(=O)O)C(=O)NCC(=O)N1)C(=O)N[C@@H](CCCCN)C(=O)N[C@@H](CCC(=O)O)C(=O)N[C@@H](CC(C)C)C(=O)N[C@@H](CO)C(=O)N[C@H](C(=O)N[C@@H](CC(C)C)C(=O)N[C@@H](CSCNC(C)=O)C(=O)O)[C@@H](C)O (H-RDLQALCC(tBu)REGCSMKELSTLC(Acm)-OH; disulfide 7-12)
– | inactive | inactive | inactive | – | H-SRQTVKLAGLDYVRTVIYIAASSRW-OH
– | inactive | inactive | – | inactive | H-SRQTVKLAGLDYVRTVIYIAR-OH
